Measured values from patent US10519147B2 (Merck Sharp & Dohme Corp., priority 2015, dated 2019).

What was measured:
human Nav1.7 = molecular target: T1, human Nav1.7 (Homo sapiens, UniProt Q15858); test: IonWorks Quattro automated patch-clamp, inactivated state block of Nav1.7; format: cell-based; conditions: channels stably expressed in HEK 293 cells; double-pulse protocol, inactivated state block; read-out: potency for the Nav 1.7 sodium ion channel (IC50, as measured by IonWorks)
T1 construct: expressed in transfected cells; host or cells: HEK 293
Description: (§1) Compounds were tested on human Nav1.7 and Nav1.5 channels stably expressed in HEK 293 cells. […] Cells were sealed on a planar substrate using the Population Patch […] (PPC) technology. Electrical access was obtained using both nystatin and amphotericin. A double-pulse protocol was used for the determination of IC50 values for inactivated state block. Nav1.7 and Nav1.5 expressing cells were voltage clamped at −100 mV and −110 mV, respectively. A depolarizing prepulse to −10 mV (Nav1.7) or −30 mV (Nav1.5) for 1000 ms followed by a 10 ms repolarization to −100 mV (Nav1.7) or −110 mV (Nav1.5) was given to generate fractional channel inactivation of 50%, followed by a 10 ms test pulse to −10 mV (Nav1.7) or −30 mV (Nav1.5) to measure peak current in control conditions and after compound addition. The following recording solutions were used (mM). External: 150 NaCl, 2 CaCl2, 5 KCl, 1 Mg Cl2, 10 HEPES, 12 Dextrose; internal: 120 CsF, 30 CsCl, 10 EGTA, 5 HEPES, 5 NaF, 2 MgCl2.
(§2) For all electrophysiology experiments, offline analysis was used to determine percent inhibition as a function of drug concentration. IC50 values were determined by fitting to the Hill equation.

human Nav1.5 = molecular target: T2, human Nav1.5 (Homo sapiens, UniProt Q14524); test: IonWorks Quattro automated patch-clamp, Nav1.5 (selectivity against Nav1.7); format: cell-based; conditions: IonWorks measurement, HEK 293 cells, inactivated state block
T2 construct: expressed in transfected cells; host or cells: HEK 293
Description: as §1, §2

T2 sequence (Q14524 whole entry): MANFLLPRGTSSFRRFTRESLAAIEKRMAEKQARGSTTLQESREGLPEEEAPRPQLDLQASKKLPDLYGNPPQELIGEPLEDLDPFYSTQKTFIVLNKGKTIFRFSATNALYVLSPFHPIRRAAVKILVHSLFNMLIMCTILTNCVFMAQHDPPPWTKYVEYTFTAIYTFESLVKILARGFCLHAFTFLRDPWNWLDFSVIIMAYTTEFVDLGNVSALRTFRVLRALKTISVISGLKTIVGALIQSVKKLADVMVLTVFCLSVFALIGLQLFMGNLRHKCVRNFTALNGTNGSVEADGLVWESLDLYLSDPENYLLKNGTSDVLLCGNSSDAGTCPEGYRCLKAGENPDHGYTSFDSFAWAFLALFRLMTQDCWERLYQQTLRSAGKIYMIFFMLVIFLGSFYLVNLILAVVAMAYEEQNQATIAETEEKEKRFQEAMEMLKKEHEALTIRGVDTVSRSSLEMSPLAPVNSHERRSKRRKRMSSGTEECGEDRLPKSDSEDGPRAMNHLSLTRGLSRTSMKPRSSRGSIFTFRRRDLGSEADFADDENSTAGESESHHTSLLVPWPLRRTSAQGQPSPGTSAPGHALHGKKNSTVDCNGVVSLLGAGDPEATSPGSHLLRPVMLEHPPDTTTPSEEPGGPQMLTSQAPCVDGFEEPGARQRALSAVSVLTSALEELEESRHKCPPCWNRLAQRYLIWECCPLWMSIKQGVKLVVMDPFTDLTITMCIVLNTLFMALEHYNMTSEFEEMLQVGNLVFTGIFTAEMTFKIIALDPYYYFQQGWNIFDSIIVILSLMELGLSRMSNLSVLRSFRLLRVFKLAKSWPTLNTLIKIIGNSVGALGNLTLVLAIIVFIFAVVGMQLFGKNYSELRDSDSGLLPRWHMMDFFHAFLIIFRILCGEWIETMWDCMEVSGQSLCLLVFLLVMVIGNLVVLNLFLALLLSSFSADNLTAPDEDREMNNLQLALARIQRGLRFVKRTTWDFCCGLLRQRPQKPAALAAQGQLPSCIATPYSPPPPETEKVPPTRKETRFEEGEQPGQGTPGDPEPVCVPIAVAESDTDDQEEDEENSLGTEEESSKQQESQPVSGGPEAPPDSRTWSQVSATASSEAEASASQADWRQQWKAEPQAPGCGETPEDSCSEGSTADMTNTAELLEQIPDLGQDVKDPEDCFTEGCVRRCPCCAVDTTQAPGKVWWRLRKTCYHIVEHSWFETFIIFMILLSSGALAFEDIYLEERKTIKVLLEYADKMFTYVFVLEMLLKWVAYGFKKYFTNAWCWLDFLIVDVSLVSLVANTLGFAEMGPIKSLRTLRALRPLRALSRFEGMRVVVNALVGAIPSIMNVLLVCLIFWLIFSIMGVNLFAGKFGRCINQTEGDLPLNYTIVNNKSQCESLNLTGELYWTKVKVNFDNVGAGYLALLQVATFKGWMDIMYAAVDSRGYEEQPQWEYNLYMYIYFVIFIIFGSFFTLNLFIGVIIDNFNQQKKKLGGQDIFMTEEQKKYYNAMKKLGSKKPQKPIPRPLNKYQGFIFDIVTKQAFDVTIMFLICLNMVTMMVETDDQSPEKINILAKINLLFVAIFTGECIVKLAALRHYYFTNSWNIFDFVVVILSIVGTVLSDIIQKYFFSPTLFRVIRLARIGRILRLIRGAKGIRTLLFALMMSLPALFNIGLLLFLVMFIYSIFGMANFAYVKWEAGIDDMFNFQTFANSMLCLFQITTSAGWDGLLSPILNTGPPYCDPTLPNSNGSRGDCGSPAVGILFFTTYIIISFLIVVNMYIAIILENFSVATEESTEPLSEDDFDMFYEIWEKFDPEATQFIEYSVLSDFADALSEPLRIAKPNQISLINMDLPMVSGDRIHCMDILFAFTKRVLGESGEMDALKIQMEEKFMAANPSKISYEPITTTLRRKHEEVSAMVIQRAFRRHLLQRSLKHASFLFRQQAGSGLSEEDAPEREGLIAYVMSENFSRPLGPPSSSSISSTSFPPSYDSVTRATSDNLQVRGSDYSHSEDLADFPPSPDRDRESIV
T1 sequence (Q15858 whole entry): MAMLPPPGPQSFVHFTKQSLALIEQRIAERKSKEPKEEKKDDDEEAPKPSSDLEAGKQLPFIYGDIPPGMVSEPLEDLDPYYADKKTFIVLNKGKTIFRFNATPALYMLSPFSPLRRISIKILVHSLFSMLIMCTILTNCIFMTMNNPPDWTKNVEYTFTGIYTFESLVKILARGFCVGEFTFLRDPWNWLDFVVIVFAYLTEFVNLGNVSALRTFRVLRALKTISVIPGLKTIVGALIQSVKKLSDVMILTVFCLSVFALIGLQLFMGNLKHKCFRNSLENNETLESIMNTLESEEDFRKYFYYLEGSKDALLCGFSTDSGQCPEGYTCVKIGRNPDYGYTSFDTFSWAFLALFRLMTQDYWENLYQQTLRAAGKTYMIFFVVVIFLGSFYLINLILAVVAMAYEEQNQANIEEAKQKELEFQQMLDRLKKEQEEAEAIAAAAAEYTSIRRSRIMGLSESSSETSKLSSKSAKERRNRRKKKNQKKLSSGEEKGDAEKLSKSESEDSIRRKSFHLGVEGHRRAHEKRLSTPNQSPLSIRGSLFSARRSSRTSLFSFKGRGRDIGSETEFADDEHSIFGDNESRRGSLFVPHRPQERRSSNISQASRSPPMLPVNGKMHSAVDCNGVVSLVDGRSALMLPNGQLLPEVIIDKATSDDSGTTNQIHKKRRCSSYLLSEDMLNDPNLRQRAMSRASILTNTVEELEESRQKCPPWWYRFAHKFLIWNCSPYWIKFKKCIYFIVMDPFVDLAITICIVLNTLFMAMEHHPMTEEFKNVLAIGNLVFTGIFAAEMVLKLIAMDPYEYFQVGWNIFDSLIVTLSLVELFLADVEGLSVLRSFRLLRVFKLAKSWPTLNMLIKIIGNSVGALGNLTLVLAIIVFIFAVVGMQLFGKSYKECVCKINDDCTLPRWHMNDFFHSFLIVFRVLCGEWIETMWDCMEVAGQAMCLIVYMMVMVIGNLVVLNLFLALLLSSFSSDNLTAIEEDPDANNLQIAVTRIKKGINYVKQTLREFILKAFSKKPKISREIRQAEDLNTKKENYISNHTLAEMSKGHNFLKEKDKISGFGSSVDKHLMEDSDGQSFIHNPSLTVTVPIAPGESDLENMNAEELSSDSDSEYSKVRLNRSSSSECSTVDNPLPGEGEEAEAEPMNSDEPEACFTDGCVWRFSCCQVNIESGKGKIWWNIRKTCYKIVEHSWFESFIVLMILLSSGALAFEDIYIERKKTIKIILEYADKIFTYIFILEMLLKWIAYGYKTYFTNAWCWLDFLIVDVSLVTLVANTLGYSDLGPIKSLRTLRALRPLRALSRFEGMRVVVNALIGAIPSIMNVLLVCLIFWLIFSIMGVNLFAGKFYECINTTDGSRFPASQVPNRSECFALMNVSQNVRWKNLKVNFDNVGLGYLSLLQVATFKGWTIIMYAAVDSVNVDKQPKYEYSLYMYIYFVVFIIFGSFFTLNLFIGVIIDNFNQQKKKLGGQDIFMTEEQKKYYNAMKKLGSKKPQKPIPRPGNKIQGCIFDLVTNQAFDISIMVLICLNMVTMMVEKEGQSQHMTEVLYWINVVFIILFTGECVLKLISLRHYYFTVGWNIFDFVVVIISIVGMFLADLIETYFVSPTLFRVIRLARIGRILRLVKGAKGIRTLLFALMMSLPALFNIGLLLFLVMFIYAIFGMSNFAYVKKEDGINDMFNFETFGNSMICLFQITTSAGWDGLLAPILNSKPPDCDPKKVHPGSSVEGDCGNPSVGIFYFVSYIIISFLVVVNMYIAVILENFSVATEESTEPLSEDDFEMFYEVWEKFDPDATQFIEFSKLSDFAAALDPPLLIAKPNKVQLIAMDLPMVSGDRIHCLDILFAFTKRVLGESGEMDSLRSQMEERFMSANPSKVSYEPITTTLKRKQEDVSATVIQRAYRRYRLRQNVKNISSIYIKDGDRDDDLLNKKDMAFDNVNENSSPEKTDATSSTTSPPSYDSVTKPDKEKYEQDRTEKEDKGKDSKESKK

| SMILES | IC50 (human Nav1.7) | ratio of Nav 1.7 potency:Nav 1.5 potency (human Nav1.5) |
| --- | --- | --- |
| N[C@@H]1CCC[C@H]1NCCCCNc1cc(F)c(S(=O)(=O)Nc2ncc(F)s2)cc1Cl [Ex 16-05, 4-[(4-{[(1R,2R)-2-aminocyclopentyl]-amino}-butyl)-amino]-5-chloro-2-fluoro-N-(5-fluoro-1,3-thiazol-2-yl)-benzene-sulfonamide] | 5 nM | 3400 |
| C[C@@H](N)CNCCCCNc1cc(F)c(S(=O)(=O)Nc2ncc(F)s2)cc1Cl [Ex 16-06, 4-[(4-{[(1R,2R)-2-aminopropyl]amino}-butyl)amino]-5-chloro-2-fluoro-N-(5-fluoro-1,3-thiazol-2-yl)benzene-sulfonamide] | 8.1 nM | > 4070 |
| N[C@@H]1CCC[C@H]1NCCCCNc1cc(F)c(S(=O)(=O)Nc2nccs2)cc1Cl [Ex 16-09] | 9.2 nM | > 3590 |
| C[C@H](N)CNCCCCNc1cc(F)c(S(=O)(=O)Nc2nccs2)cc1Cl [Ex 16-12, 4-[(4-{[(2S)-2-aminopropyl]-amino}butyl)amino]-5-chloro-2-fluoro-N-1,3-thiazol-2-yl-benzene-sulfonamide] | 13 nM | > 2540 |
| O=S(=O)(Nc1ncc(F)s1)c1cc(Cl)c(NCCCCNC2CNC2)cc1F [Ex 16-22, 4-{[4-(azetidin-3-ylamino)-butyl]amino}-5-chloro-2-fluoro-N-(5-fluoro-1,3-thiazol-2-yl)benzene-sulfonamide] | 38 nM | > 868 |
| C[C@H](CCN)NCCCCNc1cc(F)c(S(=O)(=O)Nc2ncc(F)s2)cc1Cl [Ex 16-25, 4-[(4-{[(1R)-3-amino-1-methylpropyl]amino}butyl)amino]-5-chloro-2-fluoro-N-(5-fluoro-1,3-thiazol-2-yl)-benzenesulfonamide] | 26 nM | > 1270 |
| CC(C)(CCN)NCCCCNc1cc(F)c(S(=O)(=O)Nc2ncc(F)s2)cc1Cl [Ex 16-27, 4-({4-[(3-amino-1,1-dimethylpropyl)amino]butyl}amino)-5-chloro-2-fluoro-N-(5-fluoro-1,3-thiazol-2-yl)-benzenesulfonamide] | 19 nM | > 1737 |
| CNCCCNCCCCNc1cc(F)c(S(=O)(=O)Nc2ncc(F)s2)cc1Cl [Ex 16-28, 5-chloro-2-fluoro-N-(5-fluoro-1,3-thiazol-2-yl)-4-[(4-{[3-(methylamino)-propyl]amino}butyl)amino]-benzenesulfonamide] | 25 nM | > 1320 |
| C[C@@H](N)CCNCCCCNc1cc(F)c(S(=O)(=O)Nc2ncc(F)s2)cc1Cl [Ex 16-30, 4-[(4-{[(3R)-3-amino-butyl]amino}butyl)amino]-5-chloro-2-fluoro-N-(5-fluoro-1,3-thiazol-2-yl)benzene-sulfonamide] | 14 nM | > 2357 |
| NCCNCCCCNc1cc(F)c(S(=O)(=O)Nc2ncc(F)s2)cc1Cl [Ex 16-57, 4-({4-[(2-aminoethyl)-amino]butyl}amino)-5-chloro-2-fluoro-N-(5-fluoro-1,3-thiazol-2-yl) benzene-sulfonamide] | 7.5 nM | > 4400 |
| C[C@H](CN)NCCCCNc1cc(F)c(S(=O)(=O)Nc2ncc(F)s2)cc1Cl [Ex 16-59, 4-[(4-{[(1R)-2-amino-1-methylethyl]amino}butyl)-amino]-5-chloro-2-fluoro-N-(5-fluoro-1,3-thiazol-2-yl)-benzenesulfonamide] | 17 nM | > 1941 |
| NCC1(NCCCCNc2cc(F)c(S(=O)(=O)Nc3ncc(F)s3)cc2Cl)CCC1 [Ex 16-62, 4-[(4-{[1-(aminomethyl)cyclobutyl]amino}butyl)amino]-5-chloro-2-fluoro-N-(5-fluoro-1,3-thiazol-2-yl)benzenesulfonamide] | 36 nM | > 917 |
| N[C@H]1CCC[C@H]1NCCCCNc1cc(F)c(S(=O)(=O)Nc2ncc(F)s2)cc1Cl [Ex 16-64, 4-[(4-{[(1R,2S)-2-aminocyclopentyl]amino}butyl)amino]-5-chloro-2-fluoro-N-(5-fluoro-1,3-thiazol-2-yl) benzenesulfonamide] | 23 nM | > 1430 |
| C[C@@H](CN)NCCCCNc1cc(F)c(S(=O)(=O)Nc2nccs2)cc1Cl [Ex 16-68, 4-[(4-{[(1S)-2-amino-1-methylethyl]amino}butyl)amino]-5-chloro-2-fluoro-N-1,3-thiazol-2-ylbenzenesulfonamide] | 20 nM | > 1650 |
| N[C@H]1CCC[C@@H]1NCCCCNc1cc(F)c(S(=O)(=O)Nc2ncc(F)s2)cc1Cl [Ex 16-71, 4-[(4-{[(1S,2S)-2-aminocyclopentyl]amino}butyl)amino]-5-chloro-2-fluoro-N-(5-fluoro-1,3-thiazol-2-yl)benzenesulfonamide] | 7 nM | > 4710 |
| O=S(=O)(Nc1nccs1)c1cc(Cl)c(NCCCCNC[C@@H]2CCN2)cc1F [Ex 16-74, 4-[(4-{[(2S)-azetidin-2-ylmethyl]amino}butyl)amino]-5-chloro-2-fluoro-N-1,3-thiazol-2-ylbenzenesulfonamide] | 77 nM | > 429 |

Now from value to compound, other results behind:

| IC50 (human Nav1.7) | SMILES | ratio of Nav 1.7 potency:Nav 1.5 potency (human Nav1.5) |
| --- | --- | --- |
| 6 nM | N[C@@H]1CCC[C@H]1NCCCCNc1cc(F)c(S(=O)(=O)Nc2ncns2)cc1Cl [Ex 12-07, 4-[(4-{[(1R,2R)-2-aminocyclo-pentyl]amino}butyl)amino]-5-chloro-2-fluoro-N-1,2,4-thiadiazol-5-yl-benzene-sulfonamide] | > 5500 |
| 12 nM | O=S(=O)(Nc1ncc(F)s1)c1cc(Cl)c(NCCCCNC[C@H]2CCCN2)cc1F [Ex 16-13, 5-chloro-2-fluoro-N-(5-fluoro-1,3-thiazol-2-yl)-4-[(4-{[(2R)-pyrrolidin-2-yl-methyl]amino}-butyl)-amino] benzenesulfonamide] | 2538 |
| 39 nM | O=S(=O)(Nc1nccs1)c1cc(Cl)c(NCCCCNCC[C@H]2CCCN2)cc1F [Ex 16-14, 5-chloro-2-fluoro-4-{[4-({2-[(2R)-pyrrolidin-2-yl]ethyl}-amino)-butyl]-amino}-N-1,3-thiazol-2-yl-benzenesulfonamide] | > 846 |
| 8.7 nM | O=S(=O)(Nc1ncc(F)s1)c1cc(Cl)c(NCCCCNC[C@H]2CCCCN2)cc1F [Ex 16-16, 5-chloro-2-fluoro-N-(5-fluoro-1,3-thiazol-2-yl)-4-[(4-{[(2R)-piperidin-2-yl-methyl]amino}butyl)-amino] benzenesulfonamide] | > 3800 |
| 8.3 nM | O=S(=O)(Nc1ncns1)c1cc(Cl)c(NCCCCNC[C@H]2CCCN2)cc1F [Ex 16-17, 5-chloro-2-fluoro-4-[(4-{[(2R)-pyrrolidin-2-yl-methyl]amino}butyl)amino]-N-1,2,4-thiadiazol-5-yl-benzenesulfonamide] | > 3980 |
| 80 nM | O=S(=O)(Nc1ncns1)c1cc(Cl)c(NCCCCNCC[C@H]2CCCN2)cc1F [Ex 16-20, 5-chloro-2-fluoro-4-{[4-({2-[(2R)-pyrrolidin-2-yl]ethyl}-amino)butyl]amino}-N-1,2,4-thiadiazol-5-ylbenzene-sulfonamide] | > 412 |
| 31 nM | O=S(=O)(Nc1ncns1)c1cc(Cl)c(NCCCCNCC[C@@H]2CCCN2)cc1F [Ex 16-21, 5-chloro-2-fluoro-4-{[4-({2-[(2S)-pyrrolidin-2-yl]ethyl}-amino)butyl]amino}-N-1,2,4-thiadiazol-5-ylbenzene-sulfonamide] | > 1046 |
| 21 nM | O=S(=O)(Nc1ncc(F)s1)c1cc(Cl)c(NCCCCNCC[C@@H]2CCCN2)cc1F [Ex 16-24, 5-chloro-2-fluoro-N-(5-fluoro-1,3-thiazol-2-yl)-4-{[4-({2-[(2S)-pyrrolidin-2-yl]ethyl}amino)butyl]amino} benzenesulfonamide] | > 1571 |
| 49 nM | NCCCNCCCCNc1cc(F)c(S(=O)(=O)Nc2ncns2)cc1Cl [Ex 16-32, 4-({4-[(3-aminopropyl)-amino]butyl}amino)-5-chloro-2-fluoro-N-1,2,4-thiadiazol-5-ylbenzene-sulfonamide] | > 673 |
| 8.8 nM | CNCCNCCCCNc1cc(F)c(S(=O)(=O)Nc2ncns2)cc1Cl [Ex 16-48, 5-chloro-2-fluoro-4-[(4-{[2-(methylamino)ethyl]amino}-butyl)amino]-N-1,2,4-thiadiazol-5-ylbenzene-sulfonamide] | > 3750 |
| 8.5 nM | N[C@H]1CCC[C@@H]1NCCCCNc1cc(F)c(S(=O)(=O)Nc2ncns2)cc1Cl [Ex 16-70, 4-[(4-{[(1S,2S)-2-aminocyclopentyl]amino}butyl)amino]-5-chloro-2-fluoro-N-1,2,4-thiadiazol-5-ylbenzenesulfonamide] | > 2710 |
